In patent US20190290182A1, “METHOD OF DIAGNOSTIC RELEVANCE BASED ON TASTE RECOGNITION” (RANVIER HEALTH LIMITED, priority 2016, published 2019):
“Also recorded” adds a separate entry of the source.

Assays:
healthy volunteers = conditions: healthy individuals; acute dose; two hours after administration; cited from earlier work
[1] = system: individuals with untreated clinical depression; assay: Taste recognition thresholds before and two hours after acute paroxetine (SSRI) challenge; assay type: in vivo, human
Method: Taste responses to sweet, salt, bitter and sour stimuli were then determined. Individuals were informed of which taste modality (sweet, bitter, salt, sour) they were receiving but were given no indication of whether the tester thought they would be able to recognise the taste or not.
The taste modalities were applied in solution to the tip of the tongue, using a cotton bud saturated with the solution at room temperature and placed on the tongue for approximately 5 seconds. Without closing their mouth the subject was asked to indicate whether or not they could taste the stimulus at that concentration. Between each stimulus application a 20 second inter-stimulus interval was adhered to during which the subject would rinse their mouth with approximately 25 ml of deionized water.
Each concentration of stimulus was presented to the subject five times in total, and the percentage of positive responses at each concentration determined. Subjects were first presented with a solution above threshold and thereafter, stimuli were presented in a pseudorandom order in concentrations representing ¼ log steps between the lowest (undetectable, 0% detection) to the highest (always detectable, 100% detection) concentrations, with each concentration being presented 5 times.
The range of concentrations for each taste modality was different, as detailed below: • Sweet (1M-300 μM sucrose) • Bitter (300 μM-0.3 μM quinine hydrochloride) • Salt (1M-0.2 mM NaCl) • Sour (100 mM-0.56 mM citric acid; C6H8O7).
Taste psychometric functions before and after paroxetine administration were also determined for all the individuals with previously untreated depression. From these curves, taste recognition thresholds (the concentration at which the subject would recognize the taste 50% of the time) were calculated before and after challenge in order to determine the degree of change in taste recognition that occurred (Heath et al., (2006) Journal of Neuroscience 26(49): 12664-71).
Taste recognition thresholds were determined by testing a solution of a taste modality (sweet, salt, sour, bitter) on the tip of the tongue, and the subject confirmed whether or not they recognised the taste. Referring to FIG. 3, a curve was then constructed of the number of correct identifications against the concentration of the taste in the solution. The taste recognition threshold was calculated from the curve as the concentration at which the subject would correctly identify the taste 50% of the time (Heath, Melichar, Nutt & Donaldson (2006) Journal of Neuroscience 26(49): 12664-71). […]
Patients referred to a depression clinic in Hyderabad, India were screened and recruited to the study. They had their taste recognition threshold assessed before and two hours after taking an antidepressant (Paroxetine, SSRI). […]

SMILES	bitter and sweet taste thresholds (healthy volunteers)	post-challenge taste recognition thresholds versus healthy controls ([1]; all taste modalities, controls without challenge)	post-challenge taste recognition thresholds versus pre-challenge values (statistical significance) ([1]; salt, sweet, sour and bitter, Kruskal Wallis, post-hoc Dunn's tests)	taste recognition thresholds after acute challenge compared with baseline ([1]; salt, sweet, sour and bitter, paroxetine 20 mg, two hours after challenge, n=47)	effect on depressive symptoms ([1]; two hours after acute challenge)	bitter and sour thresholds (healthy volunteers)
Fc1ccc([C@@H]2CCNC[C@H]2COc2ccc3c(c2)OCO3)cc1 [paroxetine]	significantly reduced	significantly higher	not significantly different	reduced; also recorded: generally become lower	lack of immediate effect	–
CCOc1ccccc1OC(c1ccccc1)C1CNCCO1 (stereo not drawn) [reboxetine]	–	–	–	–	–	significantly reduced
